Like-named read-outs stand apart in the source and are kept apart here.
Experiments:
[1] = system: human prostate cancer cell VCaP nude mouse transplanted tumor model; assay: Prostate tumor pharmacodynamics experiment: VCaP nude mouse transplanted tumor model; format: in vivo, BALB/c nude mice; conditions: for inhibition in vivo at 500 µmol/kg: Mus musculus, VCaP, po, 600 h, read-out: Growth Inhibition rate (GI); for Tumor volume, day 25: n=6, * P<0.05, ** P<0.01 vs solvent control
Description: Male BALB/c nude mice (number: 90; age: 6-7 weeks) purchased from Beijing Vital River Laboratory Animal Technology Co., Ltd., were raised in the SPF animal room of Suzhou Shengsu New Drug Development Co., Ltd. at a temperature of 20˜25° C. and a relative humidity 40%˜70%, and bright and dark illumination for 12 hours respectively; these mice were allowed to drink and eat freely. After normal feeding for about 6 days, mice with good physical signs can be selected for this experiment after veterinary inspection. Before grouping, animals were identified at their base of tail using marking pens. After grouping, each animal was identified by ear clipping.
Human prostate cancer cells VCaP were obtained from the Shanghai Cell Bank of the Chinese Academy of Sciences (CAS, cryopreserved in liquid nitrogen in our laboratory).
Under a culture condition of 5% CO2 and 37° C., VCaP cells were routinely cultured in DMEM medium containing 10% fetal bovine serum. Digested with 0.25% trypsin and passaged, VCaP cells were passaged 2-3 times per week based on cell growth, with a passage ratio of 1:3 to 1:5.
The VCaP cells in logarithmic growth phase were collected, counted, and resuspended in 50% DMEM basal medium and 50% Matrigel Matrix, and the cell concentration was adjust to 5×10^7 cells/mL; the cells was placed in an ice box; Cell suspension was aspirated with a 1 ml syringe, and injected subcutaneously to the anterior right armpit of nude mice. Each animal was inoculated with 200 μL (1×10^7 cells/mouse), and a VCaP transplant tumor model in nude mice was established. Regularly observe the status of mice, measure the diameter of the tumor with an electronic vernier caliper, input the data into Excel spreadsheets, calculate the tumor volume, and monitor its growth. When the tumor volume reached 100-300 mm3, 60 mice with good health and similar tumor volume were selected, and divided into 10 groups (n=6) based on the tumor volume using random block method, while ensuring that the average body weight of each group remained consistent as much as possible. The day of grouping was taken as the first day of the experiment (D1). The tumor diameters were measured twice a week after the initiation of the experiment, the tumor volumes were calculated, and the body weights of the animals were weighed and recorded at the same time.
Preparation of DMSO&PEG400&PG (v:v:v, 10:60:30): appropriate volumes of DMSO, PEG400 and PG were drawed respectively, and mixed well. The ratio of DMSO, PEG400 and PG in the mixture is 10:60:30 (v:v:v), and this mixture is used as a blank solvent and stored at room temperature.
Appropriate amount of the test compound was weighed and added into a glass bottle, appropriate volume of solvent DMSO was added, be treated with vortex ultrasonication, then appropriate volumes of PEG400 and PG were added in turn, be vortex mixed to obtain a dosing formulation with a final concentration of 0.05M. The dosing formulation was stored in refrigerator at 2-8° C. after subpackaging, and was stirred evenly with vortex before each administration. The dosing formulation was prepared every 7 days, and was subpackaged and stored in refrigerator at 4° C.
Appropriate amount of ZONK1901-10 was weighed and added into a glass bottle, appropriate volume of corn oil, was added, be treated with vortex ultrasonication evenly, a dosing formulation with a final concentration of 19.58 mg·mL-1 (0.05 M) was obtained.

[2] = system: experimental rabbit ear acne; assay: Pharmacodynamics evaluation of acne: coal tar rabbit ear acne model, HE pathology; format: in vivo, Japanese big-ear white rabbits; conditions: 0.01% ointment, 1 g per animal, once a day, two weeks, 10 rabbits per group; for Degree of keratinization: number of rabbits graded + / Degree of keratinization: number of rabbits graded ++ / Degree of keratinization: number of rabbits graded +++ / Degree of keratinization: number of rabbits graded −: hair follicle keratinization
From the text: There are 140 male healthy Japanese big-ear white rabbits, weighing 2.0-2.5 kg. After one week of adaptive rearing, 10 rabbits were randomly selected according to their body weights as the normal control group, and the remaining 130 rabbits were coated with coal tar once a day in the area of 2×2 cm2 at 2 cm outside the opening of ear canal, with a thickness of about 0.5 mm (Before coating, the coal tar was heated to melt in a water bath, and the last coal tar shell was removed before each application; the rabbits in normal control group were coated with olive oil by the same method as before). After 3 weeks for modeling, according to the degree of skin lesion, 130 rabbits were randomly divided into 13 groups which is model control group, Example 1 compound (1 group), Example 2 compound (2 groups), Example 3 compound (3 groups), Example 4 (4 groups), Example 5 (5 groups), Example 6 (6 groups), Example 7 (7 groups), Example 8 (8 groups), Example 9 (9 groups), Example 10 (10 groups), Example 11 (11 groups), Example 12 (12 groups), Example 13 (13 groups), and each group had 10 rabbits. After grouping, each dose group were continued to be coated coal tar in the morning, and after the coal tar was removed in the afternoon, apply the test drug or control drug (both 0.01%/10 g ointment, apply 1 g ointment per animal) on the lesion, once a day, for two consecutive weeks (the model control group and the normal control group were coated with the same amount of matrix). 24 hours after the last administration, the animals were sacrificed by air embolism, and the skin (full thickness) of the ear where the administration was administered was taken, fixed with 4% paraformaldehyde solution, stained with HE, and routinely observed for pathology.1.

[3] = day 25, 0.5 mmol·kg−1 i.g. QD, vs solvent control

| SMILES | inhibition in vivo at 500 µmol/kg [1, 3] | Tumor volume, day 25 ([1]; day 25, 0.5 mmol·kg−1 i.g. QD) | degree of inflammatory cell infiltration: number of rabbits graded + [2] | degree of inflammatory cell infiltration: number of rabbits graded ++ [2] | degree of inflammatory cell infiltration: number of rabbits graded +++ [2] | degree of inflammatory cell infiltration: number of rabbits graded − [2] | Degree of keratinization: number of rabbits graded + [2] | Degree of keratinization: number of rabbits graded ++ [2] | Degree of keratinization: number of rabbits graded +++ [2] | Degree of keratinization: number of rabbits graded − [2] | inhibition in vivo at 500 µmol/kg [1] |
| --- | --- | --- | --- | --- | --- | --- | --- | --- | --- | --- | --- |
| CN(C)CCNC(=O)ON=C1C=C2CC[C@H]3[C@H](CC[C@]4(C)C(c5cccnc5)=CC[C@@H]34)[C@@]2(C)CC1 [Example 1, (8S,9S,10R,13S,14S)-10, 13-Dimethyl-17-(pyridin-3-yl) -6,7,8,9,10,11,12,13,14,15-decahydro-1H-cyclopenteno[a]phenanthrene-3(2H)-one O-((2-(dimethylamino)ethyl)carbamoyl)oxime] | 82.2% | 384 ± 32 ** mm3 | 5 | 3 | 2 | 0 | 6 | 4 | 0 | 0 |  |
| CN(C)C(=O)ON=C1C=C2CC[C@H]3[C@H](CC[C@]4(C)C(c5cccnc5)=CC[C@@H]34)[C@@]2(C)CC1 [Example 2, (8S,9S,10R,13S,14S)-10,13-Dimethyl-17-(pyridin-3-yl) 6,7,8,9,10,11,12,13,14,15-decahydro-1H-cyclopenta[a]phenanthrene-3(2H)-one O-dimethylcarbamoyl oxime] | 81.4% | 393 ± 25 ** mm3 | 4 | 4 | 2 | 0 | 5 | 5 | 0 | 0 |  |
| C[C@]12CCC(=NOC(=O)N(CCCl)CCCl)C=C1CC[C@H]1[C@@H]2CC[C@]2(C)C(c3cccnc3)=CC[C@@H]12 [Example 3, (8S,9S,10R,13S,14S)-10,13-Dimethyl-17-(pyridin-3-yl) -6,7,8,9,10,11,12,13,14,15-decahydro-1H-cyclopenta[a]phenanthrenyl-3(2H)-one O-(bis(2-chloroethyl)carbamoyl)oxime] |  | 478 ± 64 ** mm3 | 5 | 4 | 1 | 0 | 6 | 4 | 0 | 0 | 71.2% |
| CC(=O)ON=C1C=C2CC[C@H]3[C@H](CC[C@]4(C)C(c5cccnc5)=CC[C@@H]34)[C@@]2(C)CC1 [Example 7, (8S,9S,10R,13S,14S)-10,13-Dimethyl-17-(pyridin-3-yl) -6,7,8,9,10,11,12,13,14,15-decahydro-1H-cyclopenta[a]phenanthrenyl-3(2H)-one O-acetyloxime] |  |  | 5 | 3 | 2 | 0 | 6 | 4 | 0 | 0 |  |
| CC(C)C(=O)OCOC(=O)ON=C1C=C2CC[C@H]3[C@H](CC[C@]4(C)C(c5cccnc5)=CC[C@@H]34)[C@@]2(C)CC1 [Example 8, ((((((8S,9S,10R,13S,14S)-10,13-dimethyl-17-(pyridin-3-yl) -7,8,9,11,12,13,14,15-octahydro-1H-cyclopenta[a]phenanthrenyl-3(2H,6H,10H) -ylidene)amino)oxy)carbonyl)oxy)methyl isobutyrate] |  |  | 4 | 4 | 2 | 0 | 5 | 5 | 0 | 0 |  |
| C[C@]12CCC(=NOC(=O)OCCN3CCOCC3)C=C1CC[C@H]1[C@@H]2CC[C@]2(C)C(c3cccnc3)=CC[C@@H]12 [Example 9] |  |  | 5 | 4 | 1 | 0 | 6 | 4 | 0 | 0 |  |
| C[C@]12CCC(=NOC(=O)C3CCNCC3)C=C1CC[C@H]1[C@@H]2CC[C@]2(C)C(c3cccnc3)=CC[C@@H]12 [Example 10, (8S,9S,10R,13S,14S)-10,13-Dimethyl-17-(pyridin-3-yl) -6,7,8,9,10,11,12,13,14,15-decahydro-1H-cyclopenta[a]phenanthrenyl-3(2H)-one O-piperidine-4-carbonyl oxime] |  |  | 5 | 3 | 2 | 0 | 6 | 3 | 0 | 1 |  |
| CN1CCC(C(=O)ON=C2C=C3CC[C@H]4[C@H](CC[C@]5(C)C(c6cccnc6)=CC[C@@H]45)[C@@]3(C)CC2)CC1 [Example 11, (8S,9S,10R,13S,14S)-10,13-Dimethyl-17-(pyridin-3-yl) -6,7,8,9,10,11,12,13,14,15-decahydro-1H-cyclopenta[a]phenanthrenyl-3(2H)-one O-(1-methylpiperidine-4-carbonyl)oxime] |  |  | 6 | 3 | 1 | 0 | 7 | 3 | 0 | 0 |  |
| CC(=O)N1CCC(C(=O)ON=C2C=C3CC[C@H]4[C@H](CC[C@]5(C)C(c6cccnc6)=CC[C@@H]45)[C@@]3(C)CC2)CC1 [Example 12, 1-(4-(((((8S,9S,10R,13S,14S)-10,13-dimethyl-17-(pyridin-3-yl) -7,8,9,11,12,13,14,15-octahydro-1H-cyclopenteno[a]phenanthrenyl-3(2H,6H, 10H) -ylidene)amino)oxy)carbonyl)piperidin-1-yl)ethanone] |  |  | 5 | 4 | 1 | 0 | 5 | 5 | 0 | 0 |  |
| CN(C)CCN1CCC(C(=O)ON=C2C=C3CC[C@H]4[C@H](CC[C@]5(C)C(c6cccnc6)=CC[C@@H]45)[C@@]3(C)CC2)CC1 [Example 13, (8S,9S,10R,13S,14S)-10,13-Dimethyl-17-(pyridin-3-yl) -6,7,8,9,10,11,12,13,14,15-decahydro-1H-cyclopenta[a]phenanthrenyl-3(2H)-one O-(1-(2-(dimethylamino)ethyl)piperidine-4-carbonyl)oxime] |  |  | 6 | 3 | 1 | 0 | 4 | 6 | 0 | 0 |  |
| CC(=O)ON=C1C=C2CC[C@H]3[C@H](CC[C@]4(C)C(c5cccnc5)=CC[C@@H]34)[C@@]2(C)CC1 [H] | 69.3% |  |  |  |  |  |  |  |  |  |  |
| CCC(=O)O/N=C1/C=C2CC[C@H]3[C@H](CC[C@]4(C)C(c5cccnc5)=CC[C@@H]34)[C@@]2(C)CC1 [ZONK1901-19, reference compound] | 38.7% | 790 ± 49 * mm3 |  |  |  |  |  |  |  |  |  |

— patent publication US20240208905A1, “ABIRATERONE DERIVATIVE, PREPARATION AND APPLICATION THEREOF” (GUANGDONG ZHONGKE MEDICINE R&D LTD., priority 2021, published 2024)
